Measurements: patent EP4644389A1, “PRMT5-MTA INHIBITOR” (Suzhou Puhe Biopharma Co., Ltd., priority 2022, dated 2024)
Like-named read-outs stand apart in the source and are kept apart here.

How the values were obtained:
HCT116-MTAPdel = experiment: 2D anti-proliferation assay (CTG luminescence), MTAP-deficient HCT116 cells; format: cell-based; conditions: for IC50: Homo sapiens; for HCT116 WT/MTAPdel Selectivity: ratio of IC50 HCT116 WT / MTAPdel
Procedure: (§1) HCT116 wild-type and MTAP-deficient cells were cultured in MCCOYS 5A medium containing 10% FBS and 1% penicillin-streptomycin and incubated in a 37°C, 5% CO2 incubator. A 40 µL cell suspension was added to each well of a 384-well microplate. Using Echo, 40 nL of the compound at different concentrations were added to each well, followed by incubation in a 37°C, 5% CO2 incubator for 7-10 days. 40 µL of CTG solution (Promega, Cat No. G7573) was added to each well and incubated away from light in a 37°C, 5% CO2 incubator for 30 minutes. Luminescence was measured using an Envision multimode plate reader (Perkin Elmer, Catalog No. Envision 2104). The luminescence signal was proportional to the ATP content in the system, and the ATP content directly reflected the number of viable cells in the system.

HCT116-MTAPwt = experiment: 2D anti-proliferation assay (CTG luminescence), wild-type HCT116 cells; format: cell-based; conditions: Homo sapiens, HCT-116, 7-10 days incubation
Procedure: By testing the activity of both of them, the inhibitory effect and selectivity of the molecules of the present invention for PRMT5 at the cellular level were shown.
as §1
ICso value calculation: [formula] • X: Log value of compound concentration • Y: Inhibition rate (%) Table 1: 2D Anti-proliferation Effects of Compounds on HTC116-MTAP del and Wild-type Colorectal Cancer HCT-116 Cell Lines.

[1] = Liver microsomal stability, human; format: in vitro ADME; conditions: human liver microsomes 0.5 mg/mL, compound 1 µM, NADPH 1 mM, 60 minutes
Procedure: Microsomal stability experiment of the compound. The details are as follows: A microsomal stability test was conducted on the compounds of the present invention. The test compounds were co-incubated with liver microsomes from different species, with or without the addition of NADPH. In the test system, the final concentration of the test compound was 1 µM, the final concentration of NADPH was 1 mM, and the final concentration of liver microsomes was 0.5 mg/mL.

[2] = Caco-2 membrane permeability assay; format: in vitro ADME; conditions: human; for efflux ratio: Caco-2, Efflux Ratio = Papp (B-A)/Papp (A-B); for Papp A→B / Papp B→A: Caco-2, apical pH 6.5, basolateral pH 7.4
Procedure: (§2) Evaluation of membrane permeability of the molecules of the present invention. Samples will be analyzed using LC-MS to estimate the apparent permeability coefficient (Papp) of the compound in Caco-2 monolayer cells, wherein the pH of the apical chamber is 6.5, and the pH of the basolateral chamber is 7.4. The P-gp efflux transporter, BCRP, and MRP2 inhibitors (50 µM quinidine, 30 µM benzbromarone, and 20 µM sulfasalazine) can block the active efflux transport of the compound. The data will be used for calculating apparent permeability (Papp). Papp = (VA×⌊drug⌋acceptor)/(Area×Time×⌊drug⌋initial,donor) [formula] wherein, VA is the volume of the receptor well (unit: mL), area is the membrane surface area (for Transwell-96 well permeable support, it is 0.143 cm^2), and time is the total transport time (unit: seconds). Efflux Ratio = Papp (B−A)/Papp (A−B) [formula]

Caco-2 monolayer cells = experiment: Caco-2 membrane permeability assay; format: in vitro ADME; conditions: Caco-2, Efflux Ratio = Papp (B-A)/Papp (A-B)
Procedure: as §2

MDCK-MDR1 cells = experiment: MDCK-MDR1 membrane permeability assay; format: in vitro ADME; conditions: MDCK-MDR1, Efflux Ratio = Papp (B-A)/Papp (A-B)
Procedure: (§3) Evaluation of membrane permeability of the molecules of the present invention to predict their permeability for the brain.
(§4) Specifically: 1. Pre-incubate MDCK-MDR1 cells at a density of 1.56×10^6 cells/mL, inoculate them in a 96-well plate to culture at 37°C for 7 days; 2. Remove the MDCKII-MDR1 plate from the incubator, wash twice with pre-warmed HBSS (10 mM HEPES, pH 7.4), and incubate at 37°C for 30 minutes; 3. Dilute the stock solution of the test compound with DMSO to obtain a 0.2 mM solution, then further dilute it with HBSS (10 mM HEPES, pH 7.4) to prepare a 1 µM working solution. For the blank control group, dilute with DMSO to obtain a 0.2 mM solution, then further dilute with HBSS (10 mM HEPES, pH 7.4) to obtain a 1 µM working solution. The final concentration of DMSO in the culture system is 0.5%; 4. Measure the transport rate of the drug from the apical side to the basolateral side. Add 125 µL of the 1 µM test compound solution into the Transwell insert (apical chamber) and immediately transfer 50 µL of the sample (D0 sample) from the apical chamber to a new 96-well plate. Fill the receptor plate wells (basolateral chamber) with 235 µL HBSS (10 mM HEPES, pH 7.4) and incubate at 37°C for 2 hours; 5. At the end of the incubation, transfer 50 µL of the sample from both the donor side and the acceptor side into the wells of a new 96-well plate, then add four volumes of cold acetonitrile containing the appropriate internal standard (IS). Before the LC-MS/MS analysis, take 100 µL of the supernatant and mix it with an appropriate volume of ultrapure water. Papp = (VA×⌊drug⌋acceptor)/(Area×Time×⌊drug⌋initial,donor) [formula] wherein VA is the volume of the acceptor well (unit: mL), area is the membrane surface area (for Transwell-96 well permeable support, it is 0.143 cm^2), and time is the total transport time (in seconds). Efflux Ratio = Papp (B−A)/Papp (A−B) [formula]

MDR1 (P-gp) = experiment: MDCK-MDR1 membrane permeability assay; format: in vitro ADME; conditions: dog; MDCK-MDR1, 1 µM, pH 7.4, 2 hours
Procedure: as §3, §4

MDR1 = experiment: MDCK-MDR1 membrane permeability assay; format: in vitro ADME; conditions: dog, pH 7.4; MDCK-MDR1, Efflux Ratio = Papp (B-A)/Papp (A-B)
Procedure: as §3, §4

[3] = Pharmacokinetic evaluation in mice (IV and oral); conditions: female, CD1, mouse, in vivo
Procedure: CD1 female mice were used as test animals, and the compounds were administered orally or intravenously (oral dose of 10 mg/kg; intravenous dose of 2 mg/kg).
Experiment protocol: Three mice per group for oral administration, and three mice per group for intravenous administration. Oral: Plasma samples were collected before administration (0 h) and at 0.25, 0.5, 1, 2, 4, 8, and 24 hours post-administration; Intravenous: Plasma samples were collected before administration (0 h) and at 0.083, 0.25, 0.5, 1, 2, 4, 8, and 24 hours post-administration. The plasma drug concentrations in mice after oral and intravenous administration were determined using LC/MS/MS, and the collected data were analyzed using AB Sciex QTRAP 6500 software.

[4] = HCT-116, HCT116 MTAP-deficient cells, 7-10 days incubation, CTG, read-out: HCT116-MTAPdel/IC50/nM

Row | Compound | IC50 (HCT116-MTAPdel; [4]) | HCT116 WT/MTAPdel Selectivity (HCT116-MTAPdel) | IC50 (HCT116-MTAPwt) | also measured
1 | Cc1c(CO)c(N)nc2cc(F)c(C(=O)N(C)C3COc4cc(C(F)(F)F)ccc43)cc12 (racemic) [Compound A9] | 27 nM | 174 | 4700 nM | CLint scaled at 1 µM [1]: 3.6 mL/min/kg; efflux ratio [2]: 1.2; Papp A→B [2]: 5.1 ×10⁻⁶ cm/s; Papp B→A [2]: 5.9 ×10⁻⁶ cm/s; Efflux (Caco-2 monolayer cells): < 2
2 | Cc1cc(NC(=O)C(=O)N2C[C@@H](C)CC[C@@H]2c2ccc3scnc3c2)cnc1N [TNG908, reference compound] | – | 23 | 1230 nM | selectivity (HCT116-MTAPdel; HCT116 WT vs MTAP-deleted): 23 fold; IC50 (HCT116-MTAPdel; HCT-116, read-out: HCT116-MTAPdel/IC50/nM): 54 nM
3 | Cc1c(CO)c(N)nc2cc(F)c(C(=O)N(C)[C@@H]3COc4cc(C(F)(F)F)ccc43)cc12 [Compound A9a] | 16 nM | 130 | 2470 nM | CLint scaled at 1 µM [1]: 8.9 mL/min/kg; efflux ratio [2]: 1.6; Papp A→B [2]: 6.9 ×10⁻⁶ cm/s; Papp B→A [2]: 10.8 ×10⁻⁶ cm/s; Efflux (Caco-2 monolayer cells): < 2; Efflux (MDCK-MDR1 cells): 1.2; Papp A→B at 2 h, 1 µM (MDR1 (P-gp)): 5.1 ×10⁻⁶ cm/s; Papp B→A at 2 h, 1 µM (MDR1 (P-gp)): 5.9 ×10⁻⁶ cm/s; efflux ratio at 2 h, 1 µM (MDR1): 1.2; bioavailability [3]: 81%; AUC(0-t) ([3]; iv, 2 mg/kg): 19500 ng·h/mL; C0 ([3]; iv, 2 mg/kg): 4010 ng/mL; clearance ([3]; iv, 2 mg/kg): 1.7 mL/min/kg; half-life ([3]; iv, 2 mg/kg): 3.3 h; AUC(0-t) ([3]; po, 10 mg/kg): 74200 ng·h/mL; Cmax ([3]; po, 10 mg/kg): 5340 ng/mL; Tmax ([3]; po, 10 mg/kg): 2 h; half-life ([3]; po, 10 mg/kg): 5.9 h
4 | Cc1c(C2CC2)c(N)nc2cc(Cl)c(C(=O)N3[C@@H](C)COC[C@H]3c3ccc(C(F)(F)F)cn3)cc12 [Compound P7b] | 2540 nM | 2 | 3800 nM | –
5 | C[C@H]1COC[C@@H](c2ccc(C(F)(F)F)cn2)N1C(=O)c1cc2cc(C3CC3)c(N)nc2cc1F [Compound P2] | 93 nM | >108 | > 10000 nM | –
6 | Cc1c(CO)c(N)nc2cc(F)c(C(=O)N3C(C)COCC3c3ccc(C(F)(F)F)cc3)cc12 (racemic) [Compound A6] | 7 nM | 145 | 1020 nM | –
7 | C[C@H]1COC[C@@H](c2ccc(C(F)(F)F)cn2)N1C(=O)c1ccc2nc(N)c(C3CC3)cc2c1 [Compound P4] | 790 nM | >13 | > 10000 nM | –
8 | Cc1c(C2CC2)c(N)nc2cc(F)c(C(=O)N3[C@@H](C)COC[C@H]3c3ccc(-c4cncc(C(F)(F)F)c4)cn3)cc12 [Compound P10] | 34 nM | 55 | 1860 nM | –
9 | Cc1c(CO)c(N)nc2cc(F)c(C(=O)N3CC(C)CCC3c3ccc4scnc4c3)cc12 (racemic) [Compound A7] | 88 nM | 44 | 3880 nM | –
10 | Cc1c(CO)c(N)nc2cc(F)c(C(=O)N3C(C)COCC3c3ccc(-c4cncc(F)c4)cn3)cc12 (racemic) [Compound A3] | 5 nM | 291 | 1450 nM | –
11 | Cc1c(CO)c(N)nc2cc(F)c(C(=O)N(C)[C@H]3COCc4nc(-c5cncc(C(F)(F)F)c5)ccc43)cc12 (racemic) [Compound A13] | 32 nM | 117 | 3750 nM | –
12 | Cc1c(C2CC2)c(N)nc2cc(F)c(C(=O)N3[C@@H](C)COC[C@H]3c3ccc(-c4cncc(Cl)c4)cn3)cc12 [Compound P9] | 16 nM | 59 | 936 nM | –
13 | Cc1c(CO)c(N)nc2cc(F)c(C(=O)N(C)[C@H]3COCc4nc(-c5cncc(Cl)c5)ccc43)cc12 (racemic) [Compound A11] | 26 nM | 168 | 4380 nM | –
14 | Cc1c(CO)c(N)nc2cc(F)c(C(=O)N(C)[C@H]3COCc4nc(-c5cncc(F)c5)ccc43)cc12 (racemic) [Compound A12] | 36 nM | 90 | 3250 nM | –
15 | CC(C)N1CCN(c2ccc([C@@H]3COC[C@H](C)N3C(=O)c3cc4cc(C5CC5)c(N)nc4cc3F)cc2)CC1 [Compound P5] | 612 nM | >16 | > 10000 nM | –
16 | CN(C(=O)c1ccc2nc(N)c(C3CC3)cc2c1)C1COc2cc(-c3cnn(C)c3)ccc21 (racemic) [Compound H4] | 4350 nM | >3 | > 10000 nM | –
17 | CN(C(=O)c1ccc2nc(N)c(C3CC3)cc2c1)C1COCc2nc(C(F)(F)F)ccc21 (stereo not shown) [Compound H3] | 926 nM | >11 | > 10000 nM | –
18 | Cc1c(CO)c(N)nc2cc(F)c(C(=O)N(C)C3COCc4nc(C(F)(F)F)ccc43)cc12 (racemic) [Compound A10] | 18 nM | >556 | > 10000 nM | CLint scaled at 1 µM [1]: 11.1 mL/min/kg; efflux ratio [2]: 3.8; Papp A→B [2]: 8.1 ×10⁻⁶ cm/s; Papp B→A [2]: 31 ×10⁻⁶ cm/s
